Ki data for 15 molecules are collected here from patent US9840501B2, “Morpholin-pyridine derivatives” (Hoffmann-La Roche Inc., priority 2014, dated 2017).

For assay [1], the target named is mouse TAAR1 (Mus musculus (Mouse), UniProt Q923Y8). Briefly: Radioligand binding assay on mouse TAAR1. The settings on record: mouse TAAR1, membranes of stably transfected HEK-293 cells; first value of the pair; read-out: Ki (μM) mouse/rat: mouse. The method in brief:
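Membranes from HEK293 cells stably expressing mouse TAAR1, in 20 mM HEPES-NaOH pH 7.4 with 0.1 mM EDTA, incubated 1 h at 4 °C with ^3[H]-(S)-4-[(ethyl-phenyl-amino)-methyl]-4,5-dihydro-oxazol-2-ylamine and compounds (10 pM to 10 μM, duplicates). Nonspecific binding with 10 μM unlabeled ligand; bound radioactivity counted after filtration.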

The target in assay [2] is rat TAAR1 (Rattus norvegicus (Rat), UniProt Q923Y9). Briefly: Radioligand binding assay on rat TAAR1. The settings on record: rat TAAR1, membranes of stably transfected HEK-293 cells; second value of the pair; read-out: Ki (μM) mouse/rat: rat. In a few lines:
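Membranes from HEK293 cells stably expressing rat TAAR1, in 20 mM HEPES-NaOH pH 7.4; displacement of 3[H]-(S)-4-[(ethyl-phenyl-amino)-methyl]-4,5-dihydro-oxazol-2-ylamine, nonspecific binding with 10 μM unlabeled ligand. Compounds 10 pM to 10 μM in duplicate, 1 h at 4 °C, filtration and scintillation counting.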

rat TAAR1, sequence (Q923Y9 whole entry): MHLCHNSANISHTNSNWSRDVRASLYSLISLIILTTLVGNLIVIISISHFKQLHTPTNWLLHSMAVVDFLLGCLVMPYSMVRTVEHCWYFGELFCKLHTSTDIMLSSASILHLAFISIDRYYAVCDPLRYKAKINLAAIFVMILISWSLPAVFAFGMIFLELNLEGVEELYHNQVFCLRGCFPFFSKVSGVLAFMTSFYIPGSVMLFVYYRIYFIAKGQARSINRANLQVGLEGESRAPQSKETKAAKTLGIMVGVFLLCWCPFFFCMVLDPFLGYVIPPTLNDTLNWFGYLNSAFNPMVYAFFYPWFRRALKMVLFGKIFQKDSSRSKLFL
mouse TAAR1, sequence (Q923Y8 whole entry): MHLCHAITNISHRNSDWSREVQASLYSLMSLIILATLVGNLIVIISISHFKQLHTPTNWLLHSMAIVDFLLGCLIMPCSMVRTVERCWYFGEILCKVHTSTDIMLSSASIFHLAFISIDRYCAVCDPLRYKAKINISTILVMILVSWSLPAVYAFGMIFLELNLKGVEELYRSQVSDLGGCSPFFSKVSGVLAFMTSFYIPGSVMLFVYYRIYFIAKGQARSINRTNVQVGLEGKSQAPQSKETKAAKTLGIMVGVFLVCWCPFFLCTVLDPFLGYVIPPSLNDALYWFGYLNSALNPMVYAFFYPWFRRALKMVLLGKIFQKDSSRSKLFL

For `O=C(Nc1ccc([C@H]2CNCCO2)nc1)c1cccc(C(F)(F)F)c1` [Example 55, N-[6-[(2R)-Morpholin-2-yl]-3-pyridyl]-3-(trifluoromethyl)benzamide], the Ki in assay [1] was found to be 0.0064 µM; in assay [2] it was 0.0221 µM.

Consider `Cc1n[nH]c(C(=O)Nc2ccc([C@@H]3CNCCO3)nc2)c1Cl` [Example 44, 4-Chloro-3-methyl-N-[6-[(2S)-morpholin-2-yl]-3-pyridyl]-1H-pyrazole-5-carboxamide], for which the results for the Ki in assay [1] and in assay [2] were 0.0239 µM and 0.443 µM, respectively.

As for `CCCc1n[nH]c(C(=O)Nc2ccc([C@H]3CNCCO3)nc2)c1Cl` [Example 59, 4-Chloro-N-[6-[(2R)-morpholin-2-yl]-3-pyridyl]-3-propyl-1H-pyrazole-5-carboxamide], the Ki in assay [1] was 0.0063 µM; in assay [2], 0.021 µM.

Turning to `Cc1cc(Nc2ccc(C(F)(F)F)cn2)cnc1C1CNCCO1` (racemic) [Example 104, (RS)-5-Methyl-6-morpholin-2-yl-N-[5-(trifluoromethyl)-2-pyridyl]pyridin-3-amine], the figures for the Ki in assay [1] and in assay [2] were 0.0837 µM and 0.455 µM, respectively.

Turning to `Clc1ccc(Nc2ccc([C@@H]3CNCCO3)nc2)cc1` [Example 18, N-(4-Chlorophenyl)-6-[(2S)-morpholin-2-yl]pyridin-3-amine], the figures for the Ki in assay [1] and in assay [2] were 0.0015 µM and 0.043 µM, respectively.

Take `CCCc1n[nH]c(C(=O)Nc2ccc([C@H]3CNCCO3)nc2)c1F` [Example 85, 4-Fluoro-N-[6-[(2R)-morpholin-2-yl]-3-pyridyl]-3-propyl-1H-pyrazole-5-carboxamide]: the values for the Ki in assay [1] and in assay [2] were 0.0046 µM and 0.15 µM, respectively.

On to `CCc1ncc(C(=O)Nc2ccc([C@@H]3CNCCO3)nc2)cn1` [Example 37, 2-Ethyl-N-[6-[(2S)-morpholin-2-yl]-3-pyridyl]pyrimidine-5-carboxamide], for which the Ki worked out at 0.139 µM in assay [1] and 1.47 µM in assay [2].

For the molecule `O=C(Nc1ccc([C@@H]2CNCCO2)nc1)Nc1cccc(C(F)(F)F)c1` [Example 42, 1-[6-[(2S)-Morpholin-2-yl]-3-pyridyl]-3-[3-(trifluoromethyl)phenyl]urea], the Ki came out at 0.0038 µM in assay [1] and 0.003 µM in assay [2].

As to `O=C(Nc1ccc(C(F)(F)F)cc1)Nc1ccc(C2CNCCO2)nc1` (racemic) [Example 10, (RS)-1-(6-Morpholin-2-yl-3-pyridyl)-3-[4-(trifluoromethyl)phenyl]urea], the Ki in assay [1] is 0.0042 µM; in assay [2], 0.0029 µM.

Consider `CCCCc1n[nH]c(C(=O)Nc2ccc([C@H]3CNCCO3)nc2)c1F` [Example 96, 3-Butyl-4-fluoro-N-[6-[(2R)-morpholin-2-yl]-3-pyridyl]-1H-pyrazole-5-carboxamide], for which the Ki in assay [1] turned out to be 0.0035 µM; in assay [2], 0.0554 µM.

Consider `CCCCc1n[nH]c(C(=O)Nc2ccc([C@@H]3CNCCO3)nc2)c1F` [Example 90, 3-Butyl-4-fluoro-N-[6-[(2S)-morpholin-2-yl]-3-pyridyl]-1H-pyrazole-5-carboxamide], for which the Ki in assay [1] is 0.0038 µM; in assay [2], 0.0269 µM.

With `CCc1n[nH]c(C(=O)Nc2ccc([C@H]3CNCCO3)nc2)c1C` [Example 66, (R)-3-Ethyl-4-methyl-N-(6-(morpholin-2-yl)pyridin-3-yl)-1H-pyrazole-5-carboxamide], the Ki in assay [1] stood at 0.0113 µM; in assay [2], 0.0534 µM.

Regarding `Cc1cn[nH]c1C(=O)Nc1ccc([C@H]2CNCCO2)nc1` [Example 65, 4-Methyl-N-[6-[(2R)-morpholin-2-yl]-3-pyridyl]-1H-pyrazole-5-carboxamide], the Ki in assay [1] was found to be 0.344 µM; in assay [2], 4.47 µM.

As for `Cc1cc(C(=O)Nc2ccc([C@@H]3CNCCO3)nc2)nc(C(F)(F)F)n1` [Example 69, (S)-6-Methyl-N-(6-(morpholin-2-yl)pyridin-3-yl)-2-(trifluoromethyl)pyrimidine-4-carboxamide], the results for the Ki in assay [1] and in assay [2] were 0.0762 µM and 0.0512 µM, respectively.

For `Brc1ccc(Nc2ccc(C3CNCCO3)nc2)cc1` (racemic) [Example 2, (RS)—N-(4-Bromophenyl)-6-morpholin-2-yl-pyridin-3-amine], the Ki in assay [1] is 0.0018 µM; in assay [2] it was 0.0437 µM.
